Source: patent US6890900B2, “Methods for treating or preventing diseases of the oral cavity” (Campina B.V., priority 2001, dated 2005)

Tests used:
Experiment in all cases: LF/GMP assay, viable plate count (pour plate) of broth culture
Type in all cases: cell-based
Details in all cases: for Log Difference: sialic acid 1,000 ppm vs 0 ppm, + = more growth
[1] = system: Pseudomonas aeruginosa ATCC #27853
Experimental: Bacterial strains used in this study were Pseudomonas aeruginosa ATCC #27853, Streptococcus mutans ATCC #33535, Streptococcus pyogenes ATCC #19615, and Actinobacillus haemophilus ATCC #43717 and an oral swab from a healthy adult. Bacteria were grown on blood/BHT media (Brain Heart Infusion Agar with protease peptone, sodium chloride, glucose, di-sodium phosphate, and agar, Oxoid, Hampshire England, Sheep's Blood) in the presence of 5% CO2 at 35° C. Bacteria were harvested by swabbing inoculated growth plates after 24 hours and diluting the colonies in 9 ml of deionized water (DI water) until a suspension of 0.5 McFarland Turbidity Standard was reached using the nephelometer (McFarland Turbidity Meter). The 0.5 McFarland value is approximately equivalent to 1.0×10^8 organisms. One ml of the appropriate bacterial dilution was taken using a sterile pipette and introduced into 8 ml of sterilized BHI broth. (Preparation of BHI broth: 37 g+1,000 ml DI water, Difco Laboratories. By pipette, 9 ml of broth was placed into medium test tubes as means of a control and 8 ml test tubes were prepared for the concentration tests).
This solution was filtered through a 0.45 μm filter. […] Example for calculating 2,500 ppm dilution (1,000 ppm=0.1%): [formula] [formula] [formula] […]
One mL of each bacterial strain, plus one mL of sialic acid solution (1,000 ppm) were inoculated into test tubes filled with 8 mL of BHI broth. Each test tube was vortexed, incubated for 24 hours at 35° C. with 5% CO2, and then pour plated in BHI agar to obtain a plate count.
This technique was used to determine the density of living (viable) cells in inoculated broth cultures. It involves plating a bacterial sample and counting the resulting colonies after incubation. A serial dilution of the original broth was taken prior to plating. The serial dilution is necessary to reduce the density of organisms in order to create countable plates. Only plates containing between 25 and 250 colonies are considered countable. Cell densities are traditionally recorded as CFU (colony forming unit)/ml. By convention, when 1.0 ml is inoculated onto a plate, the dilution factor (DF) is recorded as tenfold greater. Formula: [formula]
The assays required the use of a pour plate technique. The pour plate technique adds a step to the conventional serial dilution. The 1 ml of dilution is added to a warm emulsion of dilute nutrient (BHI) agar to produce an agar overlay in the petri plates. After incubation, the bacterial growth covers the entire plate but individual cellular movement has been restricted by the soft agar overlay. Each colony formed is assumed to have originated from a single CFU. The plates were gently mixed, inverted, and incubated for 18-24 hour at 35° C. […]

[2] = system: Streptococcus mutans ATCC #33535
Experimental: (§1) Bacterial strains used in this study were Pseudomonas aeruginosa ATCC #27853, Streptococcus mutans ATCC #33535, Streptococcus pyogenes ATCC #19615, and Actinobacillus haemophilus ATCC #43717 and an oral swab from a healthy adult. Bacteria were grown on blood/BHT media (Brain Heart Infusion Agar with protease peptone, sodium chloride, glucose, di-sodium phosphate, and agar, Oxoid, Hampshire England, Sheep's Blood) in the presence of 5% CO2 at 35° C. […] One ml of the appropriate bacterial dilution was taken using a sterile pipette and introduced into 8 ml of sterilized BHI broth. […] By pipette, 9 ml of broth was placed into medium test tubes as means of a control and 8 ml test tubes were prepared for the concentration tests). […] This solution was filtered through a 0.45 μm filter. […] To study the kinetics of LF/GMP binding, each strain of bacteria was taken separately with a sterile pipette and placed into an 8 ml BHI broth test tube, vortexed, and incubated in the presence of 1 ml of LF or GMP for 18-24 hours at 35° C. with 5% CO2. In the combination procedure, 0.5 ml of both LF and […] were taken as 1 ml inoculations. One mL of each bacterial strain, plus one mL of sialic acid solution (1,000 ppm) were inoculated into test tubes filled with 8 mL of BHI broth. Each test tube was vortexed, incubated for 24 hours at 35° C. with 5% CO2, and then pour plated in BHI agar to obtain a plate count. This technique was used to determine the density of living (viable) cells in inoculated broth cultures. It involves plating a bacterial sample and counting the resulting colonies after incubation. A serial dilution of the original broth was taken prior to plating. The serial dilution is necessary to reduce the density of organisms in order to create countable plates. Only plates containing between 25 and 250 colonies are considered countable. Cell densities are traditionally recorded as CFU (colony forming unit)/ml. […] Formula: [formula] The assays required the use of a pour plate technique. The pour plate technique adds a step to the conventional serial dilution. The 1 ml of dilution is added to a warm emulsion of dilute nutrient (BHI) agar to produce an agar overlay in the petri plates. After incubation, the bacterial growth covers the entire plate but individual cellular movement has been restricted by the soft agar overlay. Each colony formed is assumed to have originated from a single CFU. The plates were gently mixed, inverted, and incubated for 18-24 hour at 35° C. Using a control (one broth tube inoculated with a bacterial strain, but no LF), the effectiveness of LF was examined. Each test tube containing a specified amount of LF (50, 100, 250, 500, 1,000 ppm and 3000 ppm) was diluted and plates were poured. […] A. haemophilus, S. mutans, S. pyrogenes and an oral culture were tested at 35° C. Pseudomonas aeruginosa was tested at both room temperature and 35° C. with 5% CO2. This was done because P. aeruginosa is not strictly an oral pathogen. It is commonly found in the environment in various conditions. It can be found in the environment and oral intake can cause inflammation in the oral cavity. Most normal oral bacteria are only found in the mouth and are not taken in from outside factors. Therefore, P. aeruginosa is a threat in both temperature settings. […] (see Table 2).

[3] = system: Actinobacillus haemophilus ATCC #43717
Experimental: as §1

[4] = 24 hours at 35° C. with 5% CO2, listed as Sialic acid
[5] = sialic acid 1,000 ppm, 24 hours at 35° C. with 5% CO2
[6] = sodium bicarbonate pH 4.36, column 1,000 ppm

| Structure (SMILES) | Log Difference ([1]; 24 hours at 35° C. with 5% CO2) | Log Difference [1, 4] | plate count [1, 5] | Log Difference ([2]; 24 hours at 35° C. with 5% CO2) | Log Difference [2, 4] | plate count [2, 5] | Log Difference ([3]; 24 hours at 35° C. with 5% CO2) | Log Difference [3, 4] | plate count [3, 5] | pour plate count [1, 6] | pour plate count [2, 6] | pour plate count [3, 6] |
| --- | --- | --- | --- | --- | --- | --- | --- | --- | --- | --- | --- | --- |
| CC(=O)N[C@H]1[C@H]([C@H](O)[C@H](O)CO)OC(O)(C(=O)O)C[C@@H]1O (stereo partly drawn) [Sialic Acid, N-acetylneuraminic acid, reference compound] | ^+1 log | increased the amount of bacterial growth by one log | 1.0 × 10^9 | 0 log | did not reduce the bacterial growth | 5.4 × 10^7 | 0 log | did not reduce the bacterial growth | 2.9 × 10^8 |  |  |  |
| O=C([O-])O.[Na+] [Sodium Bicarbonate, Sodium bicarbonate] |  |  |  |  |  |  |  |  |  | 6.0 × 10^6 | 8.4 × 10^7 | 1.9 × 10^8 |
